pIC50: −log10 of the molar value.
What follows are compounds tested against RIPK1 recombination protein (Homo sapiens (Human), UniProt Q13546) (assay: RIPK1 kinase activity assay (ADP-Glo)). Conditions: RIPK1 kinase activity, ADP-Glo, 10 μM ATP.
Format: biochemical
Protocol: RIPK1 recombination protein: synthesized by Shanghai Medicilon Inc. under the commission by Hutchison MediPharma Limited (50 g of cell pellet was resuspended in 250 mL of lysis buffer (50 mM Tris, pH 7.5, 250 mM NaCl, 1 mM DTT, protease inhibitor 1:50), the cells were ultrasonically lysed using a sonicator (the power set to 4) on ice for 3×30 minutes; then centrifugation was carried out at 4° C., at 15,000 g for 30 minutes to clarify the suspension, the soluble pellet was resuspended into 10 mL of glutathione agarose, and incubated at 4° C. for 2 hours; then the beads were loaded into the column and washed with lysis buffer (no protease inhibitors) to baseline, and eluted with 20 mM of reduced glutathione (50 mM Tris, pH 8). The fractions identified by SDS-PAGE as containing the protein of interest were collected (10 mL of total volume), concentrated to about 5 mL and loaded into 300 mL superdex75 column (GE Healthcare) equilibrated with buffer (50 mM Tris, pH 7.5, 150 mM NaCl, 1 mM DTT, 10% glycerol, pH 7.5). RIP1 protein was eluted as a dimer from the superdex75 column. The protein concentration was determined by the Bradford assay using BSA as the standard. The yield was 12.5 mg at 0.63 mg/mL. The protein was aliquoted and frozen at −80° C. for later use.
ADP-Glo Kinase kit can be used to measure ADP level in kinase activity assay so as to distinguish the inhibitory effects of different compounds on RIPK1 kinase activity. The ADP-Glo assay was usually divided into three steps. Firstly, the kinase converted ATP to ADP and phosphorylated the substrate at the same time; secondly, ATP digestion reagent was added to degrade all ATP in the reaction system; finally, a detection reagent was added to reduce ADP to ATP, and energy from ATP was transferred to […] which thus emitting a chemical luminescence that can be detected. Assay procedure can refer to manufacture's technical manual.
(2) Reagent Preparation: • 1.33× kinase buffer: 5× kinase buffer stock (250 mM of NaCl, 150 mM of MgCl2, 2.5 mg/ml BSA (bovine serum albumin), 0.1% CHAPS (3-[(3-cholamidopropyl)-dimethyl-ammonio]-1-propane sulfonate), and 5 mM of dithiothreitol) was diluted with water to 1.33× kinase buffer; • RIPK1 enzyme solution: the kinase was dissolved in 1.33× kinase buffer to make 40 nM as the final working concentration; • ATP solution: 10 mM ATP stock solution in water was dissolved in 1.33× kinase buffer to make 10 μM as the final working concentration; • 4× compound preparation: the compound was diluted in a 3-fold gradient, and finally 4% DMSO aqueous solution containing different concentrations of the compound was obtained. The final concentrations of the test compound were 10, 3.33, 1.11, 0.37, 0.12, 0.04, 0.014, and 0.005 μM.
The assay set up two control groups, one was 100% inhibition group (no enzyme treatment), another was 0% inhibition group (no inhibitor treatment), each control group contained 8 replicate wells. 2.5 μl of serially diluted compound was added to each well of a 384-well plate, with double replicate wells, and 4% DMSO solution was added to control wells. Then 5 μl of RIPK1 enzyme solution was added to each well except 100% inhibition control, 5 ul of buffer was added to 100% inhibition control, after that, 2.5 μl of ATP solution was added to all wells, the plate was vibrated at 1000 rpm for 30 seconds to perform transient centrifuge; finally the 384-well assay plate was put in the shaking incubator, and incubated at room temperature for 3 hours. After the enzymatic reaction was completed, 5 μl of ATP depletion reagent was added to each well, the mixture was centrifuged transiently, then the 384-well assay plate was put in the shaking incubator, and incubated at room temperature for 1 hour. 5 μl of ADP detection reagent was added to each well, and the mixture was centrifuged transiently, and incubated at room temperature for 0.5 hour. […]

Chain of RIPK1 recombination protein (Q13546 other isoform, or with tags, fused parts or gaps): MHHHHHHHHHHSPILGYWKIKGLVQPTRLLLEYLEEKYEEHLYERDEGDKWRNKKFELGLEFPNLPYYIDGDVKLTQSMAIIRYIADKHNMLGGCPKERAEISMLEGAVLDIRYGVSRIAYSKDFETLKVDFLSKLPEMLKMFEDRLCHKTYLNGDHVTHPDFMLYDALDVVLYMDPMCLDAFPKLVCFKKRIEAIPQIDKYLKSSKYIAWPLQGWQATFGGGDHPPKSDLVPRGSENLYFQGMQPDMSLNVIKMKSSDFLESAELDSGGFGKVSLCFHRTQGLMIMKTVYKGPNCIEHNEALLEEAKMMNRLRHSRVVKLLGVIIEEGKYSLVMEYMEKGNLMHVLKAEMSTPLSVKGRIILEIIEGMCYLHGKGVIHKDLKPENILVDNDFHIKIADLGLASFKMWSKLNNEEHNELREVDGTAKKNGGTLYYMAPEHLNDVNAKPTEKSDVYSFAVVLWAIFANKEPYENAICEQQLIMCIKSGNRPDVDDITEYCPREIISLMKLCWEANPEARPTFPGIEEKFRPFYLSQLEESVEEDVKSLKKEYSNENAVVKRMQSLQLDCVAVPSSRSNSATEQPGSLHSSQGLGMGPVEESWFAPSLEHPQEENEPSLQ

SMILES	pIC50
CC(C)n1ncc2cnc(C(=O)NC3(c4ccc(-c5cncn(C)c5=O)cc4)CC3)nc21 [Compound 1, 1-isopropyl-N-(1-(4-(1-methyl-6-oxo-1,6-dihydropyrimidin-5-yl)phenyl)cyclopropyl)-1H-pyrazolo[3,4-d]pyrimidine-6-carboxamide]	7.55
CC(C)n1ncc2cnc(C(=O)NC3(c4ccc(-c5cncn(C)c5=O)cn4)CC3)nc21 [Compound 2]	7.20
Cn1cncc(-c2ccc(C3(NC(=O)c4nnc(Cc5ccccc5)[nH]4)CC3)cc2)c1=O [Compound 3]	7.46
Cn1cncc(-c2ccc(C3(NC(=O)c4ncc5cnn(-c6ccccc6)c5n4)CC3)cc2)c1=O [Compound 4]	7.59
Cn1cncc(-c2ccc(C3(NC(=O)c4cc(Cc5ccccc5)on4)CC3)cc2)c1=O [Compound 5]	7.24
CC(C)Cc1nc(C(=O)NC2(c3ccc(-c4cncn(C)c4=O)cc3)CC2)ncc1Cl [Compound 6]	7.25
Cn1cncc(-c2ccc(C3(NC(=O)c4ncn(Cc5ccccc5)n4)CC3)cc2)c1=O [Compound 8]	7.66
Cn1cncc(-c2ccc(C3(NC(=O)c4noc(Cc5ccccc5)n4)CC3)cc2)c1=O [Compound 9]	7.43
Cn1cncc(-c2ccc(C3(NC(=O)c4ncc(Cc5ccccc5)o4)CC3)cc2)c1=O [Compound 10]	7.59
Cn1cncc(-c2ccc(C3(NC(=O)c4nnc(Cc5ccccc5)o4)CC3)cc2)c1=O [Compound 11]	7.42

The remaining lines, values ahead:

pIC50	SMILES
7.59	CC(C)n1cncc(-c2ccc(C3(NC(=O)c4ncc5cnn(C(C)C6CC6)c5n4)CC3)cc2)c1=O (racemic) [Compound 59, 1-(1-cyclopropylethyl)-N-(1-(4-(1-i-propyl-6-oxo-1,6-dihydropyrimidin-5-yl)phenyl)cyclopropyl)-1H-pyrazolo[3,4-d]pyrimidine-6-carboxamide]
7.46	CC(C)n1ncc2cnc(C(=O)NC3(c4ccc(-c5cncn([C@H](C)C(F)(F)F)c5=O)cc4F)CC3)nc21 (stereo in doubt) [Compound 46]
7.54	CC(C)n1ncc2cnc(C(=O)NC3(c4ccc(-c5cncn([C@@H](C)C(F)(F)F)c5=O)cc4F)CC3)nc21 (stereo in doubt) [Compound 47]
7.38	CC(C)n1ncc2cnc(C(=O)NC3(c4ccc(-c5cncn(C6CCOC6)c5=O)cc4)CC3)nc21 (stereo in doubt) [Compound 80, (R)-1-i-propyl-N-(1-(4-(6-oxo-1-(tetrahydrofuran-3-yl)-1,6-dihydropyrimidin-5-yl)phenyl)cyclopropyl)-1H-pyrazolo[3,4-d]pyrimidine-6-carboxamide]
7.41	CC(C)n1ncc2cnc(C(=O)NC3(c4ccc(-c5cncn(C6CCOC6)c5=O)cc4)CC3)nc21 (stereo in doubt) [Compound 81, (S)-1-i-propyl-N-(1-(4-(6-oxo-1-(tetrahydrofuran-3-yl)-1,6-dihydropyrimidin-5-yl)phenyl)cyclopropyl)-1H-pyrazolo[3,4-d]pyrimidine-6-carboxamide]
7.29	CC(C#N)n1cncc(-c2ccc(C3(NC(=O)c4ncc5cnn(C(C)C)c5n4)CC3)cc2)c1=O (stereo in doubt) [Compound 82, (R)—N-(1-(4-(1-(1-cyanoethyl)-6-oxo-1,6-dihydropyrimidin-5-yl)phenyl)cyclopropyl)-1-i-propyl-1H-pyrazolo[3,4-d]pyrimidine-6-carboxamide]
7.33	CC(C#N)n1cncc(-c2ccc(C3(NC(=O)c4ncc5cnn(C(C)C)c5n4)CC3)cc2)c1=O (stereo in doubt) [Compound 83, (S)—N-(1-(4-(1-(1-cyanoethyl)-6-oxo-1,6-dihydropyrimidin-5-yl)phenyl)cyclopropyl)-1-i-propyl-1H-pyrazolo[3,4-d]pyrimidine-6-carboxamide]
8.05	CC(C)n1ncc2cnc(C(=O)NC3(c4ccc(-c5cncn(C6CC6)c5=O)cc4)CC3)nc21 [Compound 12]
7.66	CC(C)n1cncc(-c2ccc(C3(NC(=O)c4nnc(Cc5ccccc5)o4)CC3)cc2)c1=O [Compound 13]

— patent publication US20240002388A1, “PYRIMIDINONE COMPOUNDS AND USES THEREOF” (HUTCHISON MEDIPHARMA LIMITED, priority 2020, published 2024)
